This note sets out measurements from PMC6886544.

The target of one series is 100 kinases. The series can be described thus: Kinase selectivity profiling with 100 kinases (SelectScreen). Type of series: biochemical. The following applies: screening concentration 1 μM. The method, then: (§1) Kinase profiling of compound 17a at a concentration of 1 µM generated with the SelectScreen® Profiling Service from Life Technologies.
(§2) Figure S2. Kinase profiling of compound 17a, Illustration as waterfall plot. 9 Kinases harboring a Cysteine isostructural to Cys797 in EGFR are highlighted
(§3) Kinase % inhibition Kinase % inhibition […]
(§4) aValues are the mean ± SD of one measurement in duplicates; bKinases harboring a Cysteine isostructural to Cys797 […]
(§5) (1 picture or pasted object on this page, not shown here)

Another series concerns the target ROS1 (Homo sapiens, UniProt P08922). Description: SelectScreen kinase profiling, ROS1. Format: biochemical. The following applies: mean ± SD of one measurement in duplicates. The method, then: as §1, §2, §3, §4, §5
A further series addresses JAK3 (Homo sapiens, UniProt P52333). Description: SelectScreen kinase profiling, JAK3. Type of series: biochemical. The following applies: mean ± SD of one measurement in duplicates. The method, then:
as §1, §2, §3, §4, §5

In a further series the target is EGFR-L858R (Homo sapiens, UniProt P00533, L858R). The series can be described thus: SelectScreen kinase profiling, EGFR-L858R. Type of series: biochemical. The following applies: mean ± SD of one measurement in duplicates. As for the experimental part: as §1, §2, §3, §4, §5
Chain of EGFR-L858R (P00533 25-1210 L858R): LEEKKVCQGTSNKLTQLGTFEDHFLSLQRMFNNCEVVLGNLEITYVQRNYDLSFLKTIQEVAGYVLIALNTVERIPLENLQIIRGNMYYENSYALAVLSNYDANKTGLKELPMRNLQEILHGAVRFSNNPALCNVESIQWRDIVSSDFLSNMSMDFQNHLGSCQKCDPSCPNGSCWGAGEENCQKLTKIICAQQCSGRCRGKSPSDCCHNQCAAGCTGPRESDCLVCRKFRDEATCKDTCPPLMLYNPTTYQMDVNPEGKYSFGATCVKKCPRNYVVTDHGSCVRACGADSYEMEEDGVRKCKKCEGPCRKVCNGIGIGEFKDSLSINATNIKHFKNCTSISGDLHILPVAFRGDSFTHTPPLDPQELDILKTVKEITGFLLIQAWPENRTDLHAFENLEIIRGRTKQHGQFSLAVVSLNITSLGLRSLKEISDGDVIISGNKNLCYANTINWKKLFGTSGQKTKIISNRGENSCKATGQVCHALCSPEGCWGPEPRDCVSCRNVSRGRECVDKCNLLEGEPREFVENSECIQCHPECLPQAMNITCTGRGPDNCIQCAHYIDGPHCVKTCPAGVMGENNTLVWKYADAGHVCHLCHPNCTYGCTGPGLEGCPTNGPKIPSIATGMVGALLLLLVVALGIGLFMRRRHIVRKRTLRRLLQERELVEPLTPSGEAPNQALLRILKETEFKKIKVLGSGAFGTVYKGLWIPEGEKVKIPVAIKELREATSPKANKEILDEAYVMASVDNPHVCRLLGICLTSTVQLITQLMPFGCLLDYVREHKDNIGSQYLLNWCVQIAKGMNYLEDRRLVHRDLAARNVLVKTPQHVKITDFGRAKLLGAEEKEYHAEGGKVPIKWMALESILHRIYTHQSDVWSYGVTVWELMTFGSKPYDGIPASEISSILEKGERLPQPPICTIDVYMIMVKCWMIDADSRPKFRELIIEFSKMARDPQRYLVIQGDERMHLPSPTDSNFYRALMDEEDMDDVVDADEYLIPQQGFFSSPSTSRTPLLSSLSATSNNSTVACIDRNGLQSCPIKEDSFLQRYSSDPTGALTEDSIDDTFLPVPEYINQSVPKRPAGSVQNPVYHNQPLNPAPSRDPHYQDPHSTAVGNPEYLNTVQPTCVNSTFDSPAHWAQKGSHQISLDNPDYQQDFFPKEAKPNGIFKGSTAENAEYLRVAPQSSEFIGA
Series [1] is described as follows: Plasma protein binding, human. Format: in vitro ADME. To be noted: equilibrium dialysis, 37 °C. As for the experimental part: Assessment of plasma protein binding was measured by equilibrium dialysis by incubating plasma
based determination of final compound concentrations. […]
In general terms: In equilibrium dialysis only unbound substance equilibrates across the membrane.

A short description of series [2]: PAMPA (parallel artificial membrane permeability assay). Type of series: in vitro ADME. To be noted: pH 7.4, 500 µM, 16 hours. As for the experimental part:
masses and 0.02 Da for fragment ions. FDR was adjusted to 1% on peptide spectrum match […]
Microsomal stability (phase I) assay.
Metabolic stability under oxidative conditions was measured in liver microsomes from different species by LC/MS-based measuring of depletion of compound at a concentration of 3 µM over time up to 50 minutes (HLM) or 60 minutes (MLM) at 37 °C. Based on the compound half-life t1/2, the in vitro intrinsic clearance CLint was calculated.
Plasma stability was measured by LC/MS-based determination of the percentage of remaining compounds at a concentration of 5 µM after incubation in plasma obtained from different species […]
Assessment of plasma protein binding was measured by equilibrium dialysis by incubating plasma with the compound of interest at a concentration of 5 µM for 6 h at 37 °C followed by LC/MS-based determination of final compound concentrations.
PAMPA (Parallel artificial membrane permeability assay). […]
temperature in a wet chamber, the optical density of the solution in the receiver well was measured between 250 and 500 nm in intervals of 10 nm. The percent flux was calculated from […]

Another series is described as follows: Caco-2 assay. Type of series: in vitro ADME. The following applies: human. The method, then: For Caco-2 cell assay, a 10 mM DMSO stock of the compound was diluted to a final concentration of 5 μM in HBSS buffer pH 7.4 and incubated for 2 hours at 37 °C and 5% CO2 on a monolayer of Caco-2 cells (ATCC) that had been grown on a transwell membrane (Millipore, Schwalbach, Germany) for 21 days. The compound concentration was measured in the receiver as well as the donor well. Apparent permeability (Papp) from either the apical to basolateral direction or vice versa […]
is the donor drug concentration at t = 0, and dQ/dt is the amount of drug transported within the given time period of 2 hours. […]

The next series deals with EGFR-T790M (Homo sapiens, UniProt P00533, T790M). The series can be described thus: Mass spectrometry analysis of covalent bond formation. Format: binding. Set-up: made in house; host or cells: Sf9 insect cells (BacMagic system). To be noted: EGFR-T790M incubated with inhibitor on ice for 1 h. An excerpt:
captured and quantified using a FUJI LAS3000 system with Science Lab 2001 ImageGauge 4.0 software (Fujifilm Medial Systems, Stamford CT, USA).
Rabbit antibodies specific for phospho-EGFR (Tyr1045), EGFR, Akt, phospho-Akt (Ser473), p42/44 mitogen-activated protein kinase (MAPK), phospho-p44/42 MAPK (Thr202/Tyr204), S6 ribosomal protein, phospho-S6 ribosomal protein (Ser235/236), mouse anti-β-actin antibody as well as HRP-conjugated anti-rabbit and anti-mouse secondary antibodies were purchased from Cell Signaling (Frankfurt, Germany; Beverly, MA).
Mass spectrometry experiments.
We used the drug-resistant mutant EGFR-T790M variant for MS experiments. We incubated a […]
glycerol, 1 mM TCEP, pH 8) on ice for 1 h. We analyzed the aliquots by ESI-MS using an Thermo Fisher Scientific Dionex UltiMate 3000 HPLC system connected to a Thermo Fisher Scientific Velos Pro (2d ion trap). Therefore, 5 μL of sample was injected and separated using a Vydac 214TP C4 5 μm column (150 mm x 2.1 mm) starting at 20% of solvent B for 5 minutes followed by a gradient up to 90% of solvent B over 14 min with a flow rate of 210 μL/min with 0.1% TFA in water as solvent A and 0.1% TFA in MeCN as solvent B. A mass range of 700 to 2000 m/z was scanned and raw data was deconvoluted and analyzed with MagTran software (Z.Q. Zhang, A.G. […]

Chain of EGFR-T790M (P00533 712-979 T790M limits assumed): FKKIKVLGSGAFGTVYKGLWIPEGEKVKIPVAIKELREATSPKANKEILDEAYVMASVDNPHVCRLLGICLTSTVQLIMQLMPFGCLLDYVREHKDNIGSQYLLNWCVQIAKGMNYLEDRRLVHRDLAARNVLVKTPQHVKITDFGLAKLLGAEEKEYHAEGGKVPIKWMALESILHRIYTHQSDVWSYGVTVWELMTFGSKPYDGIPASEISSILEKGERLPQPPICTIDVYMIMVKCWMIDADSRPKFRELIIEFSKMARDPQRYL
Chain of ROS1 (P08922 28-2347): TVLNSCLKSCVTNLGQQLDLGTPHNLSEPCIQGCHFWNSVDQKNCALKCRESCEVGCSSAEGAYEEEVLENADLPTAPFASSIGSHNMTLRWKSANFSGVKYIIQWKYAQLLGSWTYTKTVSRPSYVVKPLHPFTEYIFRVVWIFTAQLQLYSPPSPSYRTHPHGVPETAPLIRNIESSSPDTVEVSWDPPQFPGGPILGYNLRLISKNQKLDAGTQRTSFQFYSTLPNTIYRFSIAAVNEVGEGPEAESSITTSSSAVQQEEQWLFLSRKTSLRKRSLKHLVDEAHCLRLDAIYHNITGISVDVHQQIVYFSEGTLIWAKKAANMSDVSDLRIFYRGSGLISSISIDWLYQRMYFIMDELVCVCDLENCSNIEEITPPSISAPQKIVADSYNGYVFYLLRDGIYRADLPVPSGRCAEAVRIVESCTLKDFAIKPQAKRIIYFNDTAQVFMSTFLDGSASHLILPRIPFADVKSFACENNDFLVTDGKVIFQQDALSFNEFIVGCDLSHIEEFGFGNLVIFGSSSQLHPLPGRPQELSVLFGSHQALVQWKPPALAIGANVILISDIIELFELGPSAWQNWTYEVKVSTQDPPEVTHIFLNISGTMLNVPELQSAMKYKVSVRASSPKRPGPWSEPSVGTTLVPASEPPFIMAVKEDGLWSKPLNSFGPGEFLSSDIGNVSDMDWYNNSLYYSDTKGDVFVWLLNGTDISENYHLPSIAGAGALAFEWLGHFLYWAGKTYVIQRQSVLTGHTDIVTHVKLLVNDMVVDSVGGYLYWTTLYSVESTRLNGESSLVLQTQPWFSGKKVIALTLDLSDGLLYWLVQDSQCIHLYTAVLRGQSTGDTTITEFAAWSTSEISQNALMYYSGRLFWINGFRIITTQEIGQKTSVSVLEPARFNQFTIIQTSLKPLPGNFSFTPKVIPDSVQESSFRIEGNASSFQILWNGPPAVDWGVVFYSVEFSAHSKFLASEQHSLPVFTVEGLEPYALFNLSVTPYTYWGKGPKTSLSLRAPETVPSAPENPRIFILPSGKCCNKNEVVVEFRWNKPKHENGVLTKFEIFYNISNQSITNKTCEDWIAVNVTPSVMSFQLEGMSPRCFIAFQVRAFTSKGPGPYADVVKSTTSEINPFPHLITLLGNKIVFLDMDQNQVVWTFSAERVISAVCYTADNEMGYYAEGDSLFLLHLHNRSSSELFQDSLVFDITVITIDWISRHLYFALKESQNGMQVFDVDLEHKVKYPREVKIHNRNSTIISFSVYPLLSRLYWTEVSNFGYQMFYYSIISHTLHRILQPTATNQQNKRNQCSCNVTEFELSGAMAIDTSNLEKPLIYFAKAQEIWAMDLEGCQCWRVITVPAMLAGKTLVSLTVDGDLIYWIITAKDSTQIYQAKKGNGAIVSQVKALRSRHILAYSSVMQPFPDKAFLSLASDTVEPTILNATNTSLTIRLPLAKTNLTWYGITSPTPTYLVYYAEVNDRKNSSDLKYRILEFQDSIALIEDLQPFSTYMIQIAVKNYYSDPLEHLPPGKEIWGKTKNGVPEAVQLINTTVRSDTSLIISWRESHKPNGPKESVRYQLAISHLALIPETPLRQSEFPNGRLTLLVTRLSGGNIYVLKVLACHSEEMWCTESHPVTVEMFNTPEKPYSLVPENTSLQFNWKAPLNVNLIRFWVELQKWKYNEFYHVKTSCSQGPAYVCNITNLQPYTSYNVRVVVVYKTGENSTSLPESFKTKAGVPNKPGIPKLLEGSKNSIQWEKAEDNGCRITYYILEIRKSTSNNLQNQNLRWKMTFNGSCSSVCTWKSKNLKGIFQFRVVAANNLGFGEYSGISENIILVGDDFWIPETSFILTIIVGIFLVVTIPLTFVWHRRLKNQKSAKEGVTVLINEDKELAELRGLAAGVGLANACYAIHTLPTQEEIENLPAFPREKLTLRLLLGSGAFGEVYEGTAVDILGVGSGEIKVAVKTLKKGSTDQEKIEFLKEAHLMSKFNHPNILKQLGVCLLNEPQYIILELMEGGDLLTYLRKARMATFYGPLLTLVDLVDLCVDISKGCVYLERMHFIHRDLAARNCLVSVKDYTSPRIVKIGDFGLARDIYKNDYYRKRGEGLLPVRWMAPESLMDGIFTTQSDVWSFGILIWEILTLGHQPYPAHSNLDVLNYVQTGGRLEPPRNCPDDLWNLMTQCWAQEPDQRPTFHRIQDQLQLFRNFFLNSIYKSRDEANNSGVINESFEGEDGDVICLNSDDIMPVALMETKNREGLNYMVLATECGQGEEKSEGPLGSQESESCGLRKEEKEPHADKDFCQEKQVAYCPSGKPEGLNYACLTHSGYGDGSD
Chain of JAK3 (P52333 whole entry): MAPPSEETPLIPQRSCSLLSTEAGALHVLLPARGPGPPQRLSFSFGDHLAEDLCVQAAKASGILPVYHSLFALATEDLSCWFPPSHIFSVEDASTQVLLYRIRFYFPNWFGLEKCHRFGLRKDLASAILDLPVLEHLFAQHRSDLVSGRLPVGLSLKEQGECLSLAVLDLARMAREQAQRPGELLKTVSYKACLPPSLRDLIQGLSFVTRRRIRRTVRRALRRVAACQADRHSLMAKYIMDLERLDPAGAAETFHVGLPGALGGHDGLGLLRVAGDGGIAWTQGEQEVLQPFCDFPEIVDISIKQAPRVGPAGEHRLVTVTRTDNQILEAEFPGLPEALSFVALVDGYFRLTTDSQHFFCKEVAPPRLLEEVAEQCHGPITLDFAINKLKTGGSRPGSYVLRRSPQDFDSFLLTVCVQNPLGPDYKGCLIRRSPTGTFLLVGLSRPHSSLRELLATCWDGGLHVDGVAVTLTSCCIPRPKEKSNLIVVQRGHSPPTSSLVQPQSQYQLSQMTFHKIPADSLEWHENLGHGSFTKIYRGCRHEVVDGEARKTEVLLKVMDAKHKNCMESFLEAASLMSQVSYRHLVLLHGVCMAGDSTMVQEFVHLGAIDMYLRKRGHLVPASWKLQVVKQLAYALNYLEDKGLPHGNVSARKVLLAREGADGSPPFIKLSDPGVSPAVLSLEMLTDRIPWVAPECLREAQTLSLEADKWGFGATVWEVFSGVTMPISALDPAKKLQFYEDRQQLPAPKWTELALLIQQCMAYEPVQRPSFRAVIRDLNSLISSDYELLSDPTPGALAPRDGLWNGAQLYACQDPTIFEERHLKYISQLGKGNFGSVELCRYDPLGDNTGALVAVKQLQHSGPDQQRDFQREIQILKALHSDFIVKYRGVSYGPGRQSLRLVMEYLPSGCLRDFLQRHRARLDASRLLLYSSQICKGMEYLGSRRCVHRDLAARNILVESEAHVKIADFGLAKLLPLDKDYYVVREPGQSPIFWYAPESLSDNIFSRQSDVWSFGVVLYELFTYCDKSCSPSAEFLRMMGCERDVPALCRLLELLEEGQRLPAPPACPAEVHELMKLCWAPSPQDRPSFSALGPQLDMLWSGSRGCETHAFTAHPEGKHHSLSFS

In general, inhibition refers to the relative decrease from the control value, in per cent. High values mean a response far below the control, low ones a response near the control. With `C=CC(=O)Nc1cccc(-c2c(-c3ccc(CN4CCN(C)CC4)cc3)[nH]c3ncnc(OC)c23)c1` [Compound 17a], at 100 kinases, the “kinases with inhibitory activity of ≥70%” value was 21 kinases and 8 mutant variants. Besides, the inhibition at 1 µM on ROS1 is 92%; against JAK3, 91 ± 2%; against EGFR-L858R, 89 ± 6%.
Usually fraction unbound stands for free concentration divided by total concentration. High values mean weak binding, low ones extensive binding. As to `C=CC(=O)Nc1cccc(-c2c(-c3ccc(N4CCN(C)CC4)cc3)[nH]c3ncnc(OCC(C)C)c23)c1` [Compound 19h], the unbound share (fraction unbound) at 6 h, 5 µM in series [1] came to 0.001. This compound also had a PAMPA flux in series [2] of 88%. For the same compound, the efflux ratio at 2 h, 5 µM in the series “Caco-2 assay” (Caco-2, pH 7.4, efflux ratio, read-out: Caco-2: ratio (BA) : (AB)) came to 3.1. In the series “Caco-2 assay” (Caco-2, apical to basolateral, 5 μM, pH 7.4, 2 hours, read-out: Caco-2: Papp AB), the Papp A→B at 2 h, 5 μM amounted to 1.2 ×10⁻⁶ cm/s. For the same compound, the Papp B→A at 2 h, 5 μM in “Caco-2 assay” (Caco-2, basolateral to apical, 5 μM, pH 7.4, 2 hours, read-out: Caco-2: Papp BA) worked out at 3.6 ×10⁻⁶ cm/s. At EGFR-T790M, the “covalent labelling by tandem mass spectrometry” value is recorded as “specific single alkylation of Cys797”.
